The values that follow are results of earlier work, collected in patent US20110268774A1, “PREPARATION OF STEM CELLS WITH REPROGRAMMED CELL SIGNALLING, A METHOD OF PRODUCING THE PREPARATION AND A METHOD OF USE THEREOF” (priority 2008, published 2011).

The data set has as its target Protein produced by HER2/neu gene (Homo sapiens, UniProt P04626). Particulars: breast cancer.

Protein produced by HER2/neu gene, sequence (P04626 23-1255): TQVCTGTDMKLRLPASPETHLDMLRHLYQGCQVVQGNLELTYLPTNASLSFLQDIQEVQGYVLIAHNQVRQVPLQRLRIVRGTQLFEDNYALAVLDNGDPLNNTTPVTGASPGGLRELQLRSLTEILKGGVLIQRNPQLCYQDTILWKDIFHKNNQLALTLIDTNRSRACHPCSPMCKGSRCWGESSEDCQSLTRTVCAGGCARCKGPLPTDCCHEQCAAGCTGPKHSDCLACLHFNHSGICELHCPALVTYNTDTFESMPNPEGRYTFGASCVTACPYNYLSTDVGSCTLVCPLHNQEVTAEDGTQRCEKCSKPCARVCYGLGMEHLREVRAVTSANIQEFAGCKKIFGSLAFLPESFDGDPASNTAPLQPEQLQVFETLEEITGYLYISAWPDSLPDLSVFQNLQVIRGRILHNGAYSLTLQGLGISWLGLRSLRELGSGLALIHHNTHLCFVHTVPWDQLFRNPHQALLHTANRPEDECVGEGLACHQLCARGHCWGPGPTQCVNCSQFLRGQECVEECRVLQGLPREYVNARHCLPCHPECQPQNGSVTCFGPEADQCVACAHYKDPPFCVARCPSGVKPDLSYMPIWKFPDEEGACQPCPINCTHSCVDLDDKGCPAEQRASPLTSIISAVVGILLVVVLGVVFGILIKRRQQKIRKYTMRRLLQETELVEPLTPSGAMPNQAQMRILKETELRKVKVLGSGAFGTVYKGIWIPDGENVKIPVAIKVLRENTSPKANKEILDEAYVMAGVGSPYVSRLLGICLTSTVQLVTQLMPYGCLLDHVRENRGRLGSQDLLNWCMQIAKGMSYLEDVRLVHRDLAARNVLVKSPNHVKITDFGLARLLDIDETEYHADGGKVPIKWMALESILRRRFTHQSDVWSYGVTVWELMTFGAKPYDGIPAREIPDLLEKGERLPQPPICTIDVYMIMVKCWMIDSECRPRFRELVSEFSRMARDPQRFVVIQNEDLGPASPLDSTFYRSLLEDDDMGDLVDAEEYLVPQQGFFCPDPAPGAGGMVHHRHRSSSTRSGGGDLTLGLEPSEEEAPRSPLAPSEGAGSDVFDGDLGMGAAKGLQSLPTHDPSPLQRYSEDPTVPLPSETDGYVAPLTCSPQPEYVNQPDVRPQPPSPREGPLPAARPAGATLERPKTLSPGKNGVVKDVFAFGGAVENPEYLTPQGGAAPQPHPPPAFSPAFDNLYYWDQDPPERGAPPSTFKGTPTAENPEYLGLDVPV

Turning to `CS(=O)(=O)CCNCc1ccc(-c2ccc3ncnc(Nc4ccc(OCc5cccc(F)c5)c(Cl)c4)c3c2)o1` [Tykerb], the recovery is 63%. Besides, for the setting “from 11%”, the “CSC percentage in tumour” value is given as 5%.
